Series [1] deals with wrinkles of the back skin of hairless mice irradiated with UVB. Kind of series: wrinkle-improving test in UVB-irradiated hairless mice. The format is in vivo, hairless mice (hos: HR-1). As to conditions: 100 µL of 0.05 % in ethanol/propylene glycol (7 : 3), once a day, five times a week, 8 weeks, after 10 weeks UVB 50 mJ/cm^2; visual score relative to control group. The procedure:
Evaluation point 1: all fine striations along the spine are not observed; a few shallow and coarse wrinkles run perpendicularly to the head-to-tail direction; and the striations appear or disappear with the motion of the mouse. […] The respective bodies were evaluated by an evaluation point of a 0.5 unit to calculate an average point for the respective groups, and the wrinkle-improving rate was calculated for the respective groups according to the following equation (II). Wrinkle-improving rate (%) = [(average value of the control group-average value of a glucosamine derivative-applied group)/(average value of the control group)] × 100 [formula]

For series [2], the system named is texture of the back skin of hairless mice irradiated with UVB. Kind of series: coarse texture-improving test in UVB-irradiated hairless mice (skin replica). The series is classed as in vivo, hairless mice (hos: HR-1). As to conditions: 100 µL of 0.05 % in ethanol/propylene glycol (7 : 3), five times a week, 4 weeks, after 6 weeks UVB 40 mJ/cm^2; texture intersection points relative to start of test; control 24. The text has this:
The enlarged photographs of the respective replicas were taken through a macro lens (magnification: four times), and the photographs were used to evaluate "coarsening of the texture". The coarseness of the texture was defined by a "number of texture intersection point", wherein a point in which three or more sulci cutis are joined is counted as one intersection point, and the number of the texture intersection points present in a square of 1 cm x 1 cm was counted on the replica photograph. An average point for the respective groups was calculated, and the texture-improving rate was calculated according to the following equation (III). Table 4. Texture-improving rate (%) = [(number of texture intersection point after irradiating with UV or after application)/(number of texture intersection point at the time of starting the test)] × 100 [formula]

Series [3] has as its system pigmentation on the backs of color guinea pigs irradiated with UV rays. Kind of series: whitening evaluation on UV-induced pigmentation. The series is classed as in vivo. As to conditions: 30 µL of 0.05 % in ethanol/propylene glycol (7 : 3), once a day, five times a week, 4 weeks; visual change in pigmentation. The text has this:
Back body hair of color guinea pigs were shaved by means of a hair clipper and a shaver, and they were irradiated with UV rays once a day, 4 times a week and 8 times in total, whereby 4 parts of pigmentation having an area of about 2.25 cm^2 were formed on the backs of the respective guinea pigs.

Series [4] concerns acnes of acne patients. Kind of series: acne-improvement evaluation with an essence for acne. Conditions: essence with 0.05 %, a month later; for Evaluation ×: number of subjects rated × : worsened; for Evaluation Δ: number of subjects rated Δ : no change; for Evaluation ⊚: number of subjects rated ⊚ : notably improved, several times a day; for Evaluation ○: number of subjects rated ○ : improved; for Acne treating effect: subjects rated ○ or ⊚. The format is in vivo. The method, then: Prepared was an essence for acne shown in the following composition example in which 0.05 % of various acyl glucosamine derivatives shown in the following Table 6 was blended. An essence which was not blended with an acyl glucosamine derivative was prepared as a control.

Series [5] deals with skin roughness in the inside of a forearm formed with 10 % SDS solution. In words: skin roughness-improving test (SDS-induced roughness, stratum corneum conductance). The format is in vivo, human being. As to conditions: hydrophilic ointment with 0.05 %, twice a day, 3 days later; conductance relative to ointment with no tested substance = 100. The method, then: The skin roughness-improving degree observed 3 days later after application was evaluated using a change in a stratum corneum water content as an index. The stratum corneum water content is measured in terms of a conductance (µS). […] Skin roughness-improving rate (%) = [(conductance observed when applying the ointment blended with the tested substance)/(conductance observed when applying the ointment blended with no tested substance)] × 100 [formula]

In series [6] the test system is guinea pig skin. In words: continuous irritative test of guinea pig skin (Draize method). The series is classed as in vivo, guinea pig (Hartley series). Also noted: key: sum of erythema (0-4) + edema (0-4) scores; max 8. The procedure: Each left and right two spots (4 spots/head) of applying parts having a frame of 2 cm x 2 cm were provided on the back of a shaved guinea pig (Hartley series, 7 weeks of age, female, N = 10), and each 50 µL of an ethanol/propylene glycol (7 : 3) solution containing 0.5 % of the respective acyl glucosamine derivatives shown in the following Table 1 was applied once a day on the respective frames.
A skin irritative score after application for 3 days straight was evaluated according to the following evaluation criteria (Draize method). The above irritative score was shown by the total points (full marks: 8 points) of erythema and edema.
• Erythema: • Evaluation point • 0: no erythema • 1: very weak erythema • 2: clear erythema • 3: middle to strong erythema • 4: very strong erythema to crust
• Evaluation point • 0: no edema • 1: very slight edema formation • 2: slight edema formation • 3: middle edema formation • 4: strong edema formation

Series [7] is described as follows: solubility in the ethanol/propylene glycol (7 : 3) solvent (Japanese Pharmacopoeia criteria). As to conditions: organic solvent or mixture, 20°C, within 30 minutes, amount of solvent for 1 g or 1 ml of solute. The series is classed as physicochemical.
[8] abbreviates: Table 1, 50 µL of 0.5 % in ethanol/propylene glycol (7 : 3) once a day, after 3 days straight, total points of erythema and edema, full marks 8, N = 10.
Where [9] appears, read: Table 2, by stereoisomer ratio, 0.5 % in ethanol/propylene glycol (7 : 3) once a day, 3 days straight, full marks 8.

Values after ≈ are worked out from the molar mass of the structure shown.

With `CCCCC/C=C\C/C=C\CCCCCCCC(=O)N[C@H]1C(O)O[C@H](CO)[C@@H](O)[C@@H]1O` (stereo partly drawn) [N-linoleoyl-D-glucosamine], the Wrinkle-improving rate in series [1] was 62%. The Texture-improving rate in series [2] is 58%. The Whitening-improving effect result in series [3] is recorded as “++”. Besides, in series [4], the “Evaluation ×” value is reported as 1, the “Evaluation Δ” value was 3, the “Evaluation ⊚” value amounted to 0 and the “Evaluation ○” value was 1. The same compound returned an Acne treating effect in series [4] of 20 percentage. In series [5], this compound returned a Skin roughness-improving rate of 115%. For the same compound, the Draize score in series [6] (setting [8]) is 0.3.
The compound `CCCCCCCCCCCC(=O)N[C@H]1C(O)O[C@H](CO)[C@@H](O)[C@@H]1O` (stereo partly drawn) [N-lauroyl-D-glucosamine] returned a Wrinkle-improving rate in series [1] of 78%. The compound also displayed a Texture-improving rate in series [2] of 87%. Also, in series [3], the Whitening-improving effect result was “+”. Further, in series [4], the “Evaluation ×” value stood at 1, the “Evaluation Δ” value is 1, the “Evaluation ⊚” value is 0 and the “Evaluation ○” value is recorded as 1. The same compound showed an Acne treating effect in series [4] of 33 percentage. The Skin roughness-improving rate in series [5] is recorded as 114%. In series [6] (setting [8]), the Draize score was determined as 0.1.
“N-retinoyl-D-glucosamine [N-retinoyl-D-glucosamine (9-cis isomer/trans isomer = 0.5/99.5)]”: the Draize score in series [6] (setting [9]) is on record as 0.1.
As to `CCCCCCCCCCCCOC(=O)N[C@H]1C(O)O[C@H](CO)[C@@H](O)[C@@H]1O` (stereo partly drawn) [N-dodecyloxycarbonyl-D-glucosamine], the Whitening-improving effect result in series [3] is recorded as “+++”. For the same compound, the Skin roughness-improving rate in series [5] is listed as 183%.
In series [1], `CCCCCCCC/C=C\CCCCCCCC(=O)N[C@H]1C(O)O[C@H](CO)[C@@H](O)[C@@H]1O` (stereo partly drawn) [N-oleoyl-D-glucosamine] yielded a Wrinkle-improving rate of 65%. The compound further had a Texture-improving rate in series [2] of 59%. Besides, the Whitening-improving effect entry in series [3] is on record as “+++”. Also, in series [4], the “Evaluation ×” value worked out at 0, the “Evaluation Δ” value is on record as 2, the “Evaluation ⊚” value is listed as 0 and the “Evaluation ○” value is 3. This compound displayed an Acne treating effect in series [4] of 60 percentage. This compound also came in with a Skin roughness-improving rate in series [5] of 114%. Moreover, the Draize score in series [6] (setting [8]) was 0.2.
As to “N-retinoyl-D-glucosamine [N-retinoyl-D-glucosamine (9-cis isomer/13-cis isomer/trans i]”, the Draize score in series [6] (setting [8]) and in series [6] (setting [9]) was 0.1 in each case.
With `CC(=O)OC[C@H]1OC(OC(C)=O)[C@H](NC(=O)/C=C(C)/C=C/C=C(C)/C=C/C2=C(C)CCCC2(C)C)[C@@H](OC(C)=O)[C@@H]1OC(C)=O` (single isomer, unassigned) [1,3,4,6-tetra-O-acetyl-N-retinoyl-D-glucosamine], the solubility at 0.5 h in series [7] lay within 1000 to 10000 µg/mL (≈ 1.59 to 15.9 mM). Further, the Draize score in series [6] (setting [9]) was found to be 0.0.
Take “1,3,4,6-tetra-O-acetyl-N-retinoyl-D-glucosamine”: the Draize score in series [6] (setting [9]) is listed as 0.0.
Still for that read-out and setting: to “N-retinoyl-D-glucosamine [N-retinoyl-D-glucosamine (13-cis isomer/trans isomer = 0.5/99.5)]” belongs 0.0.
Regarding “N-POE(2)hexadecyletheroxycarbonyl-D-glucosamine”, the Wrinkle-improving rate in series [1] is 72%. In series [2], this compound displayed a Texture-improving rate of 89%. Further, the Whitening-improving effect entry in series [3] was “++”. In addition, in series [4], the “Evaluation ×” value is reported as 0, the “Evaluation Δ” value is on record as 2, the “Evaluation ⊚” value is 0 and the “Evaluation ○” value is given as 3. Further, the Acne treating effect in series [4] is given as 60 percentage. The Skin roughness-improving rate in series [5] came to 139%. For the same compound, the Draize score in series [6] (guinea pig, in vivo) stood at 0.1.
As to `CC1=C(/C=C/C(C)=C/C=C/C(C)=C/C(=O)N[C@H]2C(O)O[C@H](CO)[C@@H](O)[C@@H]2O)C(C)(C)CCC1` [N-retinoyl-D-glucosamine (cis isomer/trans isomer = 0/100), N-retinoyl-D-glucosamine], the solubility at 0.5 h in series [7] lay within 1000 to 10000 µg/mL (≈ 2.17 to 21.7 mM). Also, in series [6] (setting [9]), the Draize score is 0.0.
Turning to “N-POE(10)docosyletheroxycarbonyl-D-glucosamine”, the Wrinkle-improving rate in series [1] stood at 82%. The same compound registered a Texture-improving rate in series [2] of 88%. Moreover, the Whitening-improving effect entry in series [3] is “++”. For the same compound, in series [4], the “Evaluation ×” value was found to be 0, the “Evaluation Δ” value turned out to be 3, the “Evaluation ⊚” value was 0 and the “Evaluation ○” value came to 2. This compound came in with an Acne treating effect in series [4] of 40 percentage. For the same compound, the Skin roughness-improving rate in series [5] is on record as 138%. Also, the Draize score in series [6] (guinea pig, in vivo) is given as 0.1.
As to `CC1=C(/C=C/C(C)=C/C=C/C(C)=C/C(=O)O)C(C)(C)CCC1` [Retinoic acid, reference compound], the Draize score in series [6] (setting [8]) came out at 8.0.
On to `CC(C)CCCCCCCCCCCCCCC(=O)N[C@H]1C(O)O[C@H](CO)[C@@H](O)[C@@H]1O` (stereo partly drawn) [N-isostearoyl-D-glucosamine], for which, in series [1], the Wrinkle-improving rate is reported as 80%. For the same compound, the Texture-improving rate in series [2] is 72%. Moreover, the Whitening-improving effect entry in series [3] is listed as “+”. In series [4], the “Evaluation ×” value is on record as 0, the “Evaluation Δ” value was 2, the “Evaluation ⊚” value amounted to 0 and the “Evaluation ○” value is listed as 3. Also, the Acne treating effect in series [4] came out at 60 percentage. In series [5], this compound yielded a Skin roughness-improving rate of 136%. Further, the Draize score in series [6] (setting [8]) amounted to 0.1.
On to “N-POE(5)octadecyletheroxycarbonyl-D-glucosamine”, for which the Wrinkle-improving rate in series [1] turned out to be 73%. This compound registered a Texture-improving rate in series [2] of 92%. The Whitening-improving effect entry in series [3] was “++”. Moreover, in series [4], the “Evaluation ×” value came to 0, the “Evaluation Δ” value was 3, the “Evaluation ⊚” value is recorded as 0 and the “Evaluation ○” value is 2. The compound also yielded an Acne treating effect in series [4] of 40 percentage. Moreover, the Skin roughness-improving rate in series [5] was found to be 128%. In series [6] (guinea pig, in vivo), the Draize score is given as 0.2.
With `CC(=O)OC[C@H]1OC(OC(C)=O)[C@H](NC(=O)/C=C(C)/C=C/C=C(C)/C=C/C2=C(C)CCCC2(C)C)[C@@H](OC(C)=O)[C@@H]1OC(C)=O` (stereo partly drawn) [1,3,4,6-tetra-O-acetyl-N-retinoyl-D-glucosamine], the Draize score in series [6] (setting [8]) came to 0.0.
As to N-retinoyl-D-glucosamine, in series [1], the Wrinkle-improving rate was 89%. The Texture-improving rate in series [2] turned out to be 75%. Besides, the Whitening-improving effect entry in series [3] is listed as “+++”. In series [4], the “Evaluation ×” value came to 0, the “Evaluation Δ” value is 0, the “Evaluation ⊚” value was 4 and the “Evaluation ○” value stood at 2. The compound also registered an Acne treating effect in series [4] of 100 percentage. The Skin roughness-improving rate in series [5] is recorded as 127%.

For the origin of these results see EP1941863A2, “External preparation composition” (Lion Corporation, priority 2002, dated 2004).
